Reference: paper PMC8778187, “A New Oxygen Containing Pyclen-Type Ligand as a Manganese(II) Binder for MRI and ^52Mn PET Applications: Equilibrium, Kinetic, Relaxometric, Structural and Radiochemical Studies” (Molecules, 2022)

Test: 17O NMR and NMRD measurements (water exchange, rotation, hydration number)
Format: physicochemical
Protocol: The relaxivity of paramagnetic metal complexes is governed by several parameters, including the water exchange rate (kex), the rotational correlation time (τR), and the number of inner sphere water molecules (q). In order to obtain information for these parameters, temperature dependent ^17O NMR measurements (9.4 T) and nuclear magnetic relaxation dispersion (NMRD) experiments were carried out in the frequency range of 0.01–80 MHz, at 3 different temperatures (25, 37, and 50 °C). Since numerous physico-chemical parameters determine the relaxivity, the independent assessment of some of the parameters is essential for the correct characterization. The variable temperature ^17O NMR measurements can deliver information about kex and τR via the transverse (1/T2) and the longitudinal (1/T1) ^17O relaxation rates, respectively, while the ^17O chemical shifts (Δω) depend on q. Therefore, the transverse and longitudinal relaxation rates and chemical shifts for a [Mn(3,9-OPC2A)] complex and a diamagnetic reference sample (HClO4, pH = 3.3) have been determined in the aqueous solution.
The ^17O 1/T2r values and the NMRD data have been analyzed simultaneously by the Swift–Connick equations [31], as well as by the Solomon–Bloembergen–Morgan (SMB) and Freed models (see Supporting Information). In this calculation, the water exchange rate, kex^298; its activation enthalpy and entropy, ΔH^‡ and ΔS^‡; the rotational correlational time, τR; its activation energy, ER; the square of the zero-field splitting energy (ZFS), Δ^2; and the correlation time of its modulation, τv, have been determined and listed in Table 5, together with corresponding values of other complexes for comparison. As a result of the high number of parameters involved in the calculations, some have to be set to reasonable estimates based on literature data. Thus, the scalar coupling constant, A/ħO, is set to 33 × 10^6 rad s^−1, the distance between the metal ion, and the inner and outer sphere water protons are fixed to rMnH = 2.83 Å and aMnH = 3.6 Å, respectively; the diffusion coefficient and its activation energy are fixed to DMnH = 23 × 10^−10 m^2s^−1 and EMnH = 18 kJmol^−1, and the activation energy of the modulation of the zero-field-splitting, Ev to 1.0 kJmol^−1.
The hydration number has been fixed to q = 1, based on the relaxivity value measured at 20 MHz (r1 = 3.09 mM^−1s^−1), and on the value, 0.97 ± 0.2, determined for q using the method proposed by Gale et al..
A Bruker Avance 400 (9.4 T) spectrometer was used to measure the longitudinal (1/T1) and transverse (1/T2) relaxation rates, and the chemical shifts of an aqueous solution of the [Mn(3,9-OPC2A)] complex (pH = 7.4, 1.3 mM) and a diamagnetic reference (HClO4 acidified water, pH = 3.3) in the temperature range of 273–348 K. The temperature calibration was performed using literature protocols relying on ethylene glycol and methanol standards. The 1/T1 and 1/T2 values were determined by the inversion−recovery and the Carr−Purcell−Meiboom−Gill spin echo technique, respectively. To avoid susceptibility corrections of the chemical shifts, a glass sphere fitted into a 10 mm NMR tube was used to contain the samples. ^17O enriched water (10% H2^17O, CortecNet) was added to the solutions to improve sensitivity (circa 1% enrichment). Proton NMRD profiles of the [Mn(3,9-OPC2A)] complex (1.00 mM, pH = 7.4) were recorded in aqueous solution on a Stelar SMARTracer Fast Field Cycling relaxometer (0.01−10 MHz), and a Bruker WP80 NMR electromagnet adapted to variable field measurements (20−80 MHz) and controlled by a SMARTracer PC-NMR console (Stelar s.r.l., Mede, Italy). The temperature was monitored by a VTC91 temperature control unit and maintained by a gas flow. The temperature was determined by previous calibration with a Pt resistance temperature probe. […]

- r1^298_20 MHz (20 MHz, 298 K): 3.09 mM⁻¹ s⁻¹
- ER (activation energy of rotation): 14.8 ± 0.6 kJmol^−1
- τv^298 (correlation time of ZFS modulation): 19.3 ± 3.0 ps
- q (method proposed by Gale et al.) (hydration number from 17O NMR line widths): 0.97 ± 0.2
- q (hydration number, fixed during the fitting procedure): 1
- τR^298 (rotational correlation time): 40.0 ± 1.1 ps
- Δ^2 (square of the zero-field splitting energy): 17.8 ± 3.6 10^18s^−2
Compound: O=C([O-])CN1CCOCCN(CC(=O)[O-])Cc2cccc(n2)C1.[Mn+2] [[Mn(3,9-OPC2A)]]
- ΔH^‡ (activation enthalpy of water exchange): 28.5 ± 1.7 kJmol^−1
- ΔS^‡ (activation entropy of water exchange): −1.9 ± 0.8 JK^−1mol^−1
- kex^298 (water exchange rate with bulk solvent): 5.3 ± 0.4 × 10^7 s^−1
- kex^298 (water exchange rate, fit of 17O NMR and NMRD data): 5.3 ± 0.4 10^7s^−1
